Assay results: patent EP4603105A1, “PHARMACEUTICAL COMPOSITION CONTAINING CYCLIC COMPOUND HAVING SELECTIVE KRAS INHIBITORY EFFECT AGAINST HRAS AND NRAS” (CHUGAI SEIYAKU KABUSHIKI KAISHA, priority 2022, dated 2024)
Where a SMILES comes first, the peptide text is derived from it. Bridges are numbered along the chain shown (N, C = ends). [ ]: non-standard residue; d: D form. The star is where a group is joined. hPhe(3,5-F2-4-CF3) = N[C@@H](CCc1cc(F)c(C(F)(F)F)c(F)c1)C(=O)O; hPhe(3-Cl-4-CF3) = N[C@@H](CCc1ccc(C(F)(F)F)c(Cl)c1)C(=O)O; NPrPhe(4-CF3) = CCCN[C@@H](Cc1ccc(C(F)(F)F)cc1)C(=O)O; NMeAbu(4,4,4-F3) = CN[C@@H](CC(F)(F)F)C(=O)O; NMeGly(cPent) = CN[C@H](C(=O)O)C1CCCC1; Hyp = O=C(O)[C@@H]1C[C@@H](O)CN1; NMeD = CN[C@@H](CC(=O)O)C(=O)O; NMeL = CN[C@@H](CC(C)C)C(=O)O; αMeS = C[C@](N)(CO)C(=O)O; Morpholide = C1CN(*)CCO1; NMeA = CN[C@@H](C)C(=O)O; Ac5c = NC1(C(=O)O)CCCC1; Aze = O=C(O)[C@@H]1CCN1; Ac4c = NC1(C(=O)O)CCC1; NEtG = CCNCC(=O)O; Sar = CNCC(=O)O; tBu = CC(C)(C)*

Tests used:
[1] = system: human lung cancer strain NCI-H441; assay type: cell-based
How it was run: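 Proliferation was scored by […] measured after the reagent was added to cultures kept at 37°C in 5% carbon dioxide.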

[2] = target: GDP-bound NRAS wild-type protein (Homo sapiens, UniProt P01111); assay: Binding to NRAS by surface plasmon resonance (SPR), KD and KD ratio to KRAS
How it was run: (§1)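 Single-cycle kinetics on GDP-loaded biotin-Avi RAS captured to ~100–300 RU; 75 s ascending injections, 100 µL/min, 30°C. HBS pH 7.4 + 10 mM MgCl2/10 µM GDP/4% DMSO. 1:1 fit, KD.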

HRAS wild-type protein = HRAS wild-type protein (Homo sapiens, UniProt P01112); assay: Binding to HRAS by surface plasmon resonance (SPR), KD and KD ratio to KRAS
How it was run: as §1

[3] = ratio of the KD value with respect to GDP-bound NRAS wild-type protein to the KD value with respect to KRAS
[4] = ratio of the KD value with respect to HRAS wild-type protein to the KD value with respect to KRAS
[5] = ratio of KD for GDP-bound NRAS wild-type protein to KD for KRAS
[6] = ratio of KD for HRAS wild-type protein to KD for KRAS
[7] = ratio of KD value for GDP-bound NRAS wild-type protein to KD value for KRAS (SPR)
[8] = ratio of KD value for HRAS wild-type protein to KD value for KRAS (SPR)

Chain of HRAS wild-type protein (P01112 whole entry): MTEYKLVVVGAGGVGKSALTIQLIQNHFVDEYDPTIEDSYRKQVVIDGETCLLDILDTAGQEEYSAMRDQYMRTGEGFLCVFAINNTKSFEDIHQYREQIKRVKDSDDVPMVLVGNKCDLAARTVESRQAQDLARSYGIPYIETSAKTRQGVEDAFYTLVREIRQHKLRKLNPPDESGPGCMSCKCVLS
Chain of GDP-bound NRAS wild-type protein (P01111 whole entry): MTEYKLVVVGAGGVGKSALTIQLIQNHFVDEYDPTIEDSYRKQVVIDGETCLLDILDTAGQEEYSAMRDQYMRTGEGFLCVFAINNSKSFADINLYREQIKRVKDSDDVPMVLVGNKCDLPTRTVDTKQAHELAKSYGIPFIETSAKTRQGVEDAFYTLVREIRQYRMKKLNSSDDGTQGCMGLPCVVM

SMILES	IC50 [1] [nM]	NRAS /KRAS [2, 5]	HRAS /KRAS (HRAS wild-type protein; [6])	other results
CC[C@H](C)[C@@H]1NC(=O)[C@H](CC(C)C)N(C)C(=O)C[C@@H](C(=O)N2CCOCC2)N(C)C(=O)[C@H](C2CCCC2)NC(=O)C2(CCCC2)NC(=O)[C@@H]2CCCN2C(=O)[C@H](CCc2cc(F)c(C(F)(F)F)c(F)c2)NC(=O)CN(C)C(=O)[C@H](Cc2ccc(C(F)(F)F)cc2)N2CCCC[C@@H](C2=O)N(C)C(=O)CN(C)C1=O [PP0540]	766			NRAS /KRAS [2, 3]: B (a compound having 3 or more and less than 10 is denoted as B); HRAS /KRAS (HRAS wild-type protein; [4]): B (a compound having 3 or more and less than 10 is denoted as B)
CCCN1C(=O)CN(C)C(=O)CN(CC)C(=O)[C@H]([C@@H](C)CC)NC(=O)[C@H](CC(C)C)N(C)C(=O)C[C@@H](C(=O)N(C)C)NC(=O)[C@H](C2CCCC2)N(C)C(=O)C2(CCC2)NC(=O)[C@@H]2C[C@@H](OCC)CN2C(=O)[C@H](CCc2ccc(C(F)(F)F)c(Cl)c2)NC(=O)CN(C)C(=O)[C@@H]1Cc1ccc(C(F)(F)F)cc1 [PP0372] ([NMeL]I[NEtG][Sar][NPrPhe(4-CF3)][Sar][hPhe(3-Cl-4-CF3)][Hyp](Et)[Ac4c][NMeGly(cPent)]D-NMe2; lactam N-11)	34.2	B (a compound having 3 or more and less than 10 is denoted as B)	B (a compound having 3 or more and less than 10 is denoted as B)	
CC[C@H](C)[C@@H]1NC(=O)[C@H](CC)N(C)C(=O)C[C@@H](C(=O)N(C)CC)N(C)C(=O)[C@H](C2CCCC2)N(C)C(=O)C2(CC(C)(C)C2)NC(=O)[C@@H]2C[C@H](C)CN2C(=O)[C@H](CCc2ccc(C(F)(F)F)c(Cl)c2)NC(=O)CN(C)C(=O)[C@H](Cc2ccc(C)cc2)N2CC/C=C\C[C@@H](C2=O)N(C)C(=O)CN(C)C1=O [PP1874]	9.9			NRAS /KRAS [2, 7]: A (a compound having 10 or more and less than 20 is denoted as A); HRAS /KRAS (HRAS wild-type protein; [8]): A (a compound having 10 or more and less than 20 is denoted as A)
CCCN1C(=O)CN(C)C(=O)CN(C)C(=O)[C@H]([C@@H](C)CC)NC(=O)[C@H](CC(C)C)N(C)C(=O)C[C@@H](C(=O)N(C)C)NC(=O)[C@H](C2CCCC2)N(C)C(=O)C2(CCC2)NC(=O)[C@@H]2CCCN2C(=O)[C@H](CCc2ccc(C(F)(F)F)c(Cl)c2)NC(=O)CN(C)C(=O)[C@@H]1Cc1ccc(C(F)(F)F)cc1 [PP0356] ([NMeL]I[Sar][Sar][NPrPhe(4-CF3)][Sar][hPhe(3-Cl-4-CF3)]P[Ac4c][NMeGly(cPent)]D-NMe2; lactam N-11)	99.4	B (a compound having 3 or more and less than 10 is denoted as B)	B (a compound having 3 or more and less than 10 is denoted as B)	
C#CC[C@H]1C(=O)N[C@@H]([C@@H](C)CC)C(=O)N(C)CC(=O)N(C)[C@H]2C/C=C\CCN(C2=O)[C@@H](Cc2ccc(C(F)(F)F)cc2)C(=O)N(C)CC(=O)N[C@@H](CCc2ccc(C(F)(F)F)c(OC)c2)C(=O)N2C[C@H](OCC)C[C@H]2C(=O)NC2(CC(C)(C)C2)C(=O)N(C)[C@@H](C2CCCC2)C(=O)N(C)[C@H](C(=O)N(C)CCC)CC(=O)N1C [PP2053]	9.3			NRAS /KRAS [2, 3]: A (a compound having 10 or more and less than 20 is denoted as A); HRAS /KRAS (HRAS wild-type protein; [4]): A (a compound having 10 or more and less than 20 is denoted as A)
CCO[C@@H]1C[C@H]2C(=O)N(C)C3(CC(C)(C)C3)C(=O)N(C)[C@@H](C3CCCC3)C(=O)N(C)[C@H](C(=O)N(C)C)CC(=O)N(C)[C@H]3CCC/C=C/c4ccc(cc4)C[C@@H](C(=O)N(C)CC(=O)N[C@@H](CCc4cc(F)c(C(F)(F)F)c(F)c4)C(=O)N2C1)N1CC/C=C\C[C@@H](C1=O)N(C)C(=O)CN(C)C(=O)[C@H]([C@@H](C)CC)NC3=O [PP3060]	2.7	B (a compound having 3 or more and less than 10 is denoted as B)	B (a compound having 3 or more and less than 10 is denoted as B)	
CCCN1C(=O)[C@@H]2CCN2C(=O)CN(C)C(=O)[C@H]([C@@H](C)CC)NC(=O)[C@H](CC(C)C)N(C)C(=O)C[C@@H](C(=O)N2CCOCC2)N(C)C(=O)[C@H](C2CCCC2)N(C)C(=O)[C@](C)(COC(C)(C)C)NC(=O)[C@@H]2CCCN2C(=O)[C@H](CCc2cc(F)c(C(F)(F)F)c(F)c2)NC(=O)CN(C)C(=O)[C@@H]1Cc1ccc(C(F)(F)F)cc1 [PP0800] ([NMeL]I[Sar][Aze][NPrPhe(4-CF3)][Sar][hPhe(3,5-F2-4-CF3)]P[αMeS](tBu)[NMeGly(cPent)][NMeD]-Morpholide; lactam N-11)	186	C (A compound having a KD ratio of 0.1 or more and less than 3 is denoted as C)	B (a compound having 3 or more and less than 10 is denoted as B)	
CC[C@H](C)[C@@H]1NC(=O)[C@H](CC2CC2)N(C)C(=O)C[C@@H](C(=O)N(C)C)N(C)C(=O)[C@H](C2CCCC2)N(C)C(=O)C2(CCC2)N(C)C(=O)[C@@H]2CCCN2C(=O)[C@H](CCc2cc(F)c(C(F)(F)F)c(F)c2)NC(=O)CN(C)C(=O)[C@H](Cc2ccc(C)cc2)N2CC/C=C\C[C@@H](C2=O)N(C)C(=O)[C@@H]2CCCN2C1=O [PP1798]	7.8			NRAS /KRAS [2, 7]: A (a compound having 10 or more and less than 20 is denoted as A); HRAS /KRAS (HRAS wild-type protein; [8]): B (a compound having 3 or more and less than 10 is denoted as B)
CCCC[C@H]1C(=O)N[C@@H]([C@@H](C)CC)C(=O)N(C)CC(=O)N(C)[C@H]2C/C=C\CCN(C2=O)[C@@H](Cc2ccc(C(F)(F)F)cc2)C(=O)N(C)CC(=O)N[C@@H](CCc2cc(F)c(C(F)(F)F)c(F)c2)C(=O)N2C[C@@H](C)C[C@H]2C(=O)NC2(CC(C)(C)C2)C(=O)N(C)[C@@H](C2CCCC2)C(=O)N(C)[C@H](C(=O)N(C)C)CC(=O)N1C [PP1661]	5.7			NRAS /KRAS [2, 7]: A (a compound having 10 or more and less than 20 is denoted as A); HRAS /KRAS (HRAS wild-type protein; [8]): A (a compound having 10 or more and less than 20 is denoted as A)
CCO[C@@H]1C[C@H]2C(=O)NC3(CCC3)C(=O)N(C)[C@@H](C3CCCC3)C(=O)N(C)[C@H](C(=O)N3CCOCC3)CC(=O)N(C)[C@@H](COC)C(=O)N[C@@H]([C@@H](C)CC)C(=O)N(C)CC(=O)N(C)[C@H]3CCCCCN(C3=O)[C@@H](Cc3ccc(C(F)(F)F)cc3)C(=O)N(C)CC(=O)N[C@@H](CCc3ccc(C(F)(F)F)c(Cl)c3)C(=O)N2C1 [PP0849]	35.7	B (a compound having 3 or more and less than 10 is denoted as B)	B (a compound having 3 or more and less than 10 is denoted as B)	
CC[C@H](C)[C@@H]1NC(=O)[C@@H]2CCCCc3ccc(cc3)C[C@@H](C(=O)N(C)CC(=O)N[C@@H](CCc3ccc(C(F)(F)F)c(OC)c3)C(=O)N3CC4(CC4)C[C@H]3C(=O)NC3(CC(C)(C)C3)C(=O)N(C)[C@@H](C3CCCC3)C(=O)N(C)[C@H](C(=O)N(C)CC)CC(=O)N2C)N2CC/C=C\C[C@@H](C2=O)N(C)C(=O)CN(C)C1=O [PP3081]	1.9	A (a compound having 10 or more and less than 20 is denoted as A)	B (a compound having 3 or more and less than 10 is denoted as B)	
CCCN1C(=O)[C@@H]2CCN2C(=O)[C@H](C)N(C)C(=O)[C@H]([C@@H](C)CC)NC(=O)[C@H](CC(F)(F)F)N(C)C(=O)C[C@@H](C(=O)N2CCOCC2)N(C)C(=O)[C@H](C2CCCC2)N(C)C(=O)C2(CCCC2)NC(=O)[C@@H]2CCCN2C(=O)[C@H](CCc2ccc(C(F)(F)F)c(Cl)c2)NC(=O)CN(C)C(=O)[C@@H]1Cc1ccc(C(F)(F)F)cc1 [PP0191] ([NMeAbu(4,4,4-F3)]I[NMeA][Aze][NPrPhe(4-CF3)][Sar][hPhe(3-Cl-4-CF3)]P[Ac5c][NMeGly(cPent)][NMeD]-Morpholide; lactam N-11)	3.9	C (A compound having a KD ratio of 0.1 or more and less than 3 is denoted as C)	B (a compound having 3 or more and less than 10 is denoted as B)	
CCC[C@H]1C(=O)N[C@@H]([C@@H](C)CC)C(=O)N(C)CC(=O)N(C)[C@H]2C/C=C\CCN(C2=O)[C@@H](Cc2ccc(C(F)(F)F)cc2)C(=O)N(C)CC(=O)N[C@@H](CCc2cc(F)c(C(F)(F)F)c(F)c2)C(=O)N2C[C@H](OCC)C[C@H]2C(=O)NC2(CC(C)(C)C2)C(=O)N(C)[C@@H](C2CCCC2)C(=O)N(C)[C@H](C(=O)N2CCC2)CC(=O)N1C [PP1943]	9.2			NRAS /KRAS [2, 3]: A (a compound having 10 or more and less than 20 is denoted as A); HRAS /KRAS (HRAS wild-type protein; [4]): B (a compound having 3 or more and less than 10 is denoted as B)
CCCN(C)C(=O)[C@@H]1CC(=O)N(C)[C@@H](C2CC2)C(=O)N[C@@H]([C@@H](C)CC)C(=O)N(C)CC(=O)N(C)[C@H]2C/C=C\CCN(C2=O)[C@@H](Cc2ccc(C(F)(F)F)cc2)C(=O)N(C)CC(=O)N[C@@H](CCc2cc(F)c(C(F)(F)F)c(F)c2)C(=O)N2C[C@H](OCC)C[C@H]2C(=O)NC2(CCC2)C(=O)N(C)[C@@H](C2CCCC2)C(=O)N1C [PP1994]	22.4			NRAS /KRAS [2, 3]: AA (a compound having 20 or more is denoted as AA); HRAS /KRAS (HRAS wild-type protein; [4]): A (a compound having 10 or more and less than 20 is denoted as A)
CCO[C@@H]1C[C@H]2C(=O)NC3(CCC3)C(=O)N(C)[C@@H](C3CCCC3)C(=O)N(C)[C@H](C(=O)N(C)CCOC)CC(=O)N(C)[C@@H](CC3CC3)C(=O)N[C@@H]([C@@H](C)CC)C(=O)N(C)CC(=O)N(C)[C@H]3C/C=C\CCN(C3=O)[C@@H](Cc3ccc(C(F)(F)F)cc3)C(=O)N(C)CC(=O)N[C@@H](CCc3cc(F)c(C(F)(F)F)c(F)c3)C(=O)N2C1 [PP1318]	11.5			NRAS /KRAS ([2]; ratio of KD with respect to GDP-bound NRAS wild-type protein to KD with respect to KRAS): A (a compound having 10 or more and less than 20 is denoted as A); HRAS /KRAS (HRAS wild-type protein; ratio of KD with respect to HRAS wild-type protein to KD with respect to KRAS): A (a compound having 10 or more and less than 20 is denoted as A)
